Assay results published in ChEMBL document CHEMBL5696441 (Nat Chem Biol, 2011).

How the values were obtained:
[1] = test system: Tyrosine-protein kinase ABL1 (Homo sapiens), P00519 [Y253F]; experiment: Inhibition of ABL1 Y253F mutant (unknown origin) assessed as remaining activity at 1 uM by Kinome scan method relative to control
[2] = target: Calcium/calmodulin-dependent protein kinase type II subunit alpha (Homo sapiens) (UniProt Q9UQM7); experiment: Inhibition of CAMK2A (unknown origin) assessed as remaining activity at 1 uM by Kinome scan method relative to control
Sequence of Calcium/calmodulin-dependent protein kinase type II subunit alpha (Homo sapiens) (Q9UQM7 whole entry): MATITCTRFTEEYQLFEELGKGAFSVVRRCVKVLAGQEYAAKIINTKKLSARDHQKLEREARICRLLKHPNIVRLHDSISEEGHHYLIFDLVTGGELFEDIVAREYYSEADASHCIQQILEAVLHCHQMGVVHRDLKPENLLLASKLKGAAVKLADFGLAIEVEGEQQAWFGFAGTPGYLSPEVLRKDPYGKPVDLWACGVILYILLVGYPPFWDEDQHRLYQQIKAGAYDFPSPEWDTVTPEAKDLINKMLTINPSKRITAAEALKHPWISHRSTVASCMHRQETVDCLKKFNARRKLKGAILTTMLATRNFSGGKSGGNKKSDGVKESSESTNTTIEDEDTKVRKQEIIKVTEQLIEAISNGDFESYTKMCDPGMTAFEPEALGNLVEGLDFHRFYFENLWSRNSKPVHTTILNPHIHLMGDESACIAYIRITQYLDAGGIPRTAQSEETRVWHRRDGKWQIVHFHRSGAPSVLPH

[3] = target: Cyclin-dependent kinase 19 (Homo sapiens) (UniProt Q9BWU1); experiment: Inhibition of CDK11 (unknown origin) assessed as remaining activity at 1 uM by Kinome scan method relative to control
Sequence of Cyclin-dependent kinase 19 (Homo sapiens) (Q9BWU1 whole entry): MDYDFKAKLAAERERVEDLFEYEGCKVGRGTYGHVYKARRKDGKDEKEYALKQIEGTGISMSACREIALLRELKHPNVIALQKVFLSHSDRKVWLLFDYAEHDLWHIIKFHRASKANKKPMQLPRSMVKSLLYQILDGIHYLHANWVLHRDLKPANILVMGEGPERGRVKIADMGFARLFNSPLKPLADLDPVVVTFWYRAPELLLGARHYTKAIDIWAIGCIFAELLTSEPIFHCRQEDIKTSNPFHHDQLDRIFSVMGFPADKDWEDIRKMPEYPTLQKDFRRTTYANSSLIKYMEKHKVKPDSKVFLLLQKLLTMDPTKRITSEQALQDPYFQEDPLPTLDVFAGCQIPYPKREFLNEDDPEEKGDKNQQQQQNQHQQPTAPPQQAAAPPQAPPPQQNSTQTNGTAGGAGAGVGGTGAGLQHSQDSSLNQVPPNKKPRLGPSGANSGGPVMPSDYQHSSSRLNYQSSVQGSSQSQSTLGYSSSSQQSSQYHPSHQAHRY

[4] = target: Dual specificity protein kinase CLK2 (Homo sapiens) (UniProt P49760); experiment: Inhibition of CLK2 (unknown origin) assessed as remaining activity at 1 uM by Kinome scan method relative to control
Sequence of Dual specificity protein kinase CLK2 (Homo sapiens) (P49760 whole entry, looked up, canonical isoform): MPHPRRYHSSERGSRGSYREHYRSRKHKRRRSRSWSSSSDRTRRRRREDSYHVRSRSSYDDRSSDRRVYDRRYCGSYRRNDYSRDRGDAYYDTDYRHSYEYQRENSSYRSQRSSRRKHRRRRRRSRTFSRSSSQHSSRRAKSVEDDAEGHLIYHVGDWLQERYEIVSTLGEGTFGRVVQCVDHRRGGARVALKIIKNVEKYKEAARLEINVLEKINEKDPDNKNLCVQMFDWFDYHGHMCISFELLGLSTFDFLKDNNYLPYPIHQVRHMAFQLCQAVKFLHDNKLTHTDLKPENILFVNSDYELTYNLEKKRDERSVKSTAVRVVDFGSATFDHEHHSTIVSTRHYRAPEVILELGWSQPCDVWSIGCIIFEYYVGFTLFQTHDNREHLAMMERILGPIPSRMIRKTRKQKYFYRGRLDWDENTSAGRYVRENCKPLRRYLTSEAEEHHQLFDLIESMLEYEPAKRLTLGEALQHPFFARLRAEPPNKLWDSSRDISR

[5] = target: Casein kinase I isoform epsilon (Homo sapiens) (UniProt P49674); experiment: Inhibition of CSNK1E (unknown origin) assessed as remaining activity at 1 uM by Kinome scan method relative to control
[6] = target: Death-associated protein kinase 3 (Homo sapiens) (UniProt O43293); experiment: Inhibition of DAPK3 (unknown origin) assessed as remaining activity at 1 uM by Kinome scan method relative to control
[7] = test system: Epidermal growth factor receptor (Homo sapiens), P00533 [UNDEFINED MUTATION]; experiment: Inhibition of EGFR E746-A750del mutant (unknown origin) assessed as remaining activity at 1 uM by Kinome scan method relative to control
[8] = target: Ephrin type-A receptor 8 (Homo sapiens) (UniProt P29322); experiment: Inhibition of EPHA8 (unknown origin) assessed as remaining activity at 1 uM by Kinome scan method relative to control
Sequence of Ephrin type-A receptor 8 (Homo sapiens) (P29322 whole entry): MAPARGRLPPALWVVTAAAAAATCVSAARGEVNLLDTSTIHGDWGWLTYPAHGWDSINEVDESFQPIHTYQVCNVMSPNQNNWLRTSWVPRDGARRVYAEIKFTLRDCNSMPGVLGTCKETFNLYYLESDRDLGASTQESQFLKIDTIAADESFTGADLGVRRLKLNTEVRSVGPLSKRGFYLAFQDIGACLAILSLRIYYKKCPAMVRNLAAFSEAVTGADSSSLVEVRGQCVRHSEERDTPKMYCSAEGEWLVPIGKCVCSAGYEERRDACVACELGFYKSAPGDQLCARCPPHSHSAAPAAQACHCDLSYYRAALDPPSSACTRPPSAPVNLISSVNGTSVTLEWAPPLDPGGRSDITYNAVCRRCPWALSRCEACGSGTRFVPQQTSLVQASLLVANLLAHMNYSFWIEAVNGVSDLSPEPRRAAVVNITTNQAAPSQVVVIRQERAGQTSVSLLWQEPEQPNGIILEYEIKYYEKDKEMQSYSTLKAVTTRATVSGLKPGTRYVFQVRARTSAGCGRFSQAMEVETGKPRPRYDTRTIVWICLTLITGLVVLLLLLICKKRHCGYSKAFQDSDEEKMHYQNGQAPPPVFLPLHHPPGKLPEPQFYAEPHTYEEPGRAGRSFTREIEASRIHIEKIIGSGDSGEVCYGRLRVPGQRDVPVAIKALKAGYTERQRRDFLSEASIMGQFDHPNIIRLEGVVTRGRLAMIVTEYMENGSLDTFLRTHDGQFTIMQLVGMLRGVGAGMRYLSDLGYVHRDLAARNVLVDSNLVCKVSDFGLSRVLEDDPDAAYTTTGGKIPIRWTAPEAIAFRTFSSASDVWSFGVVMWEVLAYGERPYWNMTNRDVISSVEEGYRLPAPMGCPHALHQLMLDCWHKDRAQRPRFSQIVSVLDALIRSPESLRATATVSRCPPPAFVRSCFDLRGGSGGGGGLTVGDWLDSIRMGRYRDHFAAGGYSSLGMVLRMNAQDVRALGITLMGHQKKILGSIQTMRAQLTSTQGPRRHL

[9] = test system: Fibroblast growth factor receptor 3 (Homo sapiens), P22607 [G697C]; experiment: Inhibition of FGFR3 G697C mutant (unknown origin) assessed as remaining activity at 1 uM by Kinome scan method relative to control
[10] = target: Serine/threonine-protein kinase 10 (Homo sapiens) (UniProt O94804); experiment: Inhibition of LOK (unknown origin) assessed as remaining activity at 1 uM by Kinome scan method relative to control
[11] = target: Serine/threonine-protein kinase MAK (Homo sapiens) (UniProt P20794); experiment: Inhibition of MAK (unknown origin) assessed as remaining activity at 1 uM by Kinome scan method relative to control
[12] = target: Hepatocyte growth factor receptor (Homo sapiens) (UniProt P08581); experiment: Inhibition of MET (unknown origin) assessed as remaining activity at 1 uM by Kinome scan method relative to control
Sequence of Hepatocyte growth factor receptor (Homo sapiens) (P08581 whole entry): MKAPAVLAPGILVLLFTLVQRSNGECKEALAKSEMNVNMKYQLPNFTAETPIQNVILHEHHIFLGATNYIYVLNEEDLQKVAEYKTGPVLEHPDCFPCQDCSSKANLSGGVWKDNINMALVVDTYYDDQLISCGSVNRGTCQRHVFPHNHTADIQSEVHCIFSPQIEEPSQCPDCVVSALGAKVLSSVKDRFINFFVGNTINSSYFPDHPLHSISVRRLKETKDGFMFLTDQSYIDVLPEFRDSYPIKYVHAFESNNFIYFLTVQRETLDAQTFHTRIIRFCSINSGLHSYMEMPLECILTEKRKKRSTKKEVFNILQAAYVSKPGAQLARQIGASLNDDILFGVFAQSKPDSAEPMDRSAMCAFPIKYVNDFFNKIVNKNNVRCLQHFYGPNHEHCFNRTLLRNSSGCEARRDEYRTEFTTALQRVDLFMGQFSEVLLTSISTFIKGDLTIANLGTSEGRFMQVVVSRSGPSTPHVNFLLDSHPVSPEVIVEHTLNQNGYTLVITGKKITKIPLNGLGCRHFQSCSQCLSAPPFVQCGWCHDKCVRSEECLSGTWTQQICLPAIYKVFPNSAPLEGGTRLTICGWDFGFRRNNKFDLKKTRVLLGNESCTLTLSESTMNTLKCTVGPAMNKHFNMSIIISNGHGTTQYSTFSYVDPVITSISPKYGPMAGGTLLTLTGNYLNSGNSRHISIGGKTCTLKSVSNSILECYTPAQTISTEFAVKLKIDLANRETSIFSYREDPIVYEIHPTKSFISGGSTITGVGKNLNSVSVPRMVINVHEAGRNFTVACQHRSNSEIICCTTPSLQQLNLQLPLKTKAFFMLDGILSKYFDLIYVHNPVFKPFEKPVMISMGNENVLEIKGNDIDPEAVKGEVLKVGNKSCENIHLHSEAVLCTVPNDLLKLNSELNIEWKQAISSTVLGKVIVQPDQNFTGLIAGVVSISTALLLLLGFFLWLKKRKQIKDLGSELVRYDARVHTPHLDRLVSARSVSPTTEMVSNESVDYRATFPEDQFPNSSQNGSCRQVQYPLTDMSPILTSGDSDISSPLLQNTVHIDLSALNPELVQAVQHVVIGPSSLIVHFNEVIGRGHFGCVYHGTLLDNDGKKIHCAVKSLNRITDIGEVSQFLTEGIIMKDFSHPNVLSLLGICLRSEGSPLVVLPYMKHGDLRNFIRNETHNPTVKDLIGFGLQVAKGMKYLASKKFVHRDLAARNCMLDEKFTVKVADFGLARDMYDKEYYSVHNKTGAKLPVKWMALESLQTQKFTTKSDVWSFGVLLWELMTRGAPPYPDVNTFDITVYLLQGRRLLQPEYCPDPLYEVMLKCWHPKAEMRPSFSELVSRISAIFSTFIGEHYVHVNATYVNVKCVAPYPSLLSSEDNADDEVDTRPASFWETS

[13] = target: Serine/threonine-protein kinase Nek9 (Homo sapiens) (UniProt Q8TD19); experiment: Inhibition of NEK9 (unknown origin) assessed as remaining activity at 1 uM by Kinome scan method relative to control
[14] = target: Platelet-derived growth factor receptor alpha (Homo sapiens) (UniProt P16234); experiment: Inhibition of PDGFRalpha (unknown origin) assessed as remaining activity at 1 uM by Kinome scan method relative to control
[15] = target: Ribosomal protein S6 kinase alpha-1 (Homo sapiens) (UniProt Q15418); experiment: Inhibition of C-terminal kinase domain RPS6KA1 (unknown origin) assessed as remaining activity at 1 uM by Kinome scan method relative to control
[16] = target: RAC-gamma serine/threonine-protein kinase (Homo sapiens) (UniProt Q9Y243); experiment: Inhibition of human AKT3 assessed as residual activity at 1 uM using RBER-GSK3(14-27) as substrate in presence of 33P-ATP by ProQinase assay relative to control
[17] = target: Casein kinase I isoform gamma-2 (Homo sapiens) (UniProt P78368); experiment: Inhibition of human CK1gamma2 assessed as residual activity at 1 uM using casein as substrate in presence of 33P-ATP by ProQinase assay relative to control
Sequence of Casein kinase I isoform gamma-2 (Homo sapiens) (P78368 whole entry, looked up, canonical isoform): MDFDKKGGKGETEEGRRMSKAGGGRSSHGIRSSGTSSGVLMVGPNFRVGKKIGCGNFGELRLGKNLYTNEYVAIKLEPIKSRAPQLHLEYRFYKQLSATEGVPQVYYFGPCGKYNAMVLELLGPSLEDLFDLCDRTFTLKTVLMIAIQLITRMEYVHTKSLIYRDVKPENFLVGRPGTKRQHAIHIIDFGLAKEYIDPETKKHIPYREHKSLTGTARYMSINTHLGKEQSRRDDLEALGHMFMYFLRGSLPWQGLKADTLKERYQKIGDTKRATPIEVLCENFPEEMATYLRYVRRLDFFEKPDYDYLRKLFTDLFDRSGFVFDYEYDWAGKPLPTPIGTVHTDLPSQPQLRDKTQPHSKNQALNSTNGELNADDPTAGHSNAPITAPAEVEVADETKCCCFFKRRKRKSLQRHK

[18] = target: Dual specificity protein kinase CLK1 (Homo sapiens) (UniProt P49759); experiment: Inhibition of human CLK1 assessed as residual activity at 1 uM using autophos as substrate in presence of 33P-ATP by ProQinase assay relative to control
[19] = test system: Epidermal growth factor receptor (Homo sapiens), P00533 [G719S]; experiment: Inhibition of human EGFR G719S mutant assessed as residual activity at 1 uM using PolyEY as substrate in presence of 33P-ATP by ProQinase assay relative to control
[20] = target: Leucine-rich repeat serine/threonine-protein kinase 2 (Homo sapiens) (UniProt Q5S007); experiment: Inhibition of human LRRK2 assessed as residual activity at 1 uM using RBER-GSK3(14-27) as substrate in presence of 33P-ATP by ProQinase assay relative to control
[21] = target: Serine/threonine-protein kinase mTOR (Homo sapiens) (UniProt P42345); experiment: Inhibition of human mTOR assessed as residual activity at 1 uM using casein as substrate in presence of 33P-ATP by ProQinase assay relative to control
[22] = target: Serine/threonine-protein kinase Nek4 (Homo sapiens) (UniProt P51957); experiment: Inhibition of human NEK4 assessed as residual activity at 1 uM using MBP as substrate in presence of 33P-ATP by ProQinase assay relative to control
[23] = target: Serine/threonine-protein kinase N1 (Homo sapiens) (UniProt Q16512); experiment: Inhibition of human PRK1 assessed as residual activity at 1 uM using RBER-CHKtide as substrate in presence of 33P-ATP by ProQinase assay relative to control
[24] = target: Protein-tyrosine kinase 2-beta (Homo sapiens) (UniProt Q14289); experiment: Inhibition of human PYK2 assessed as residual activity at 1 uM using polyEY as substrate in presence of 33P-ATP by ProQinase assay relative to control
[25] = target: Proto-oncogene tyrosine-protein kinase receptor Ret (Homo sapiens) (UniProt P07949); experiment: Inhibition of human RET assessed as residual activity at 1 uM using polyEY as substrate in presence of 33P-ATP by ProQinase assay relative to control
[26] = target: Serine/threonine-protein kinase PLK2 (Homo sapiens) (UniProt Q9NYY3); experiment: Inhibition of human SNK assessed as residual activity at 1 uM using RBER-GSK3(14-27) as substrate in presence of 33P-ATP by ProQinase assay relative to control
[27] = target: SRSF protein kinase 3 (Homo sapiens) (UniProt Q9UPE1); experiment: Inhibition of human STK23 assessed as residual activity at 1 uM using RBER-CHKtide as substrate in presence of 33P-ATP by ProQinase assay relative to control
[28] = target: Serine/threonine-protein kinase TBK1 (Homo sapiens) (UniProt Q9UHD2); experiment: Inhibition of human TBK1 assessed as residual activity at 1 uM using casein as substrate in presence of 33P-ATP by ProQinase assay relative to control
Sequence of Serine/threonine-protein kinase TBK1 (Homo sapiens) (Q9UHD2 whole entry): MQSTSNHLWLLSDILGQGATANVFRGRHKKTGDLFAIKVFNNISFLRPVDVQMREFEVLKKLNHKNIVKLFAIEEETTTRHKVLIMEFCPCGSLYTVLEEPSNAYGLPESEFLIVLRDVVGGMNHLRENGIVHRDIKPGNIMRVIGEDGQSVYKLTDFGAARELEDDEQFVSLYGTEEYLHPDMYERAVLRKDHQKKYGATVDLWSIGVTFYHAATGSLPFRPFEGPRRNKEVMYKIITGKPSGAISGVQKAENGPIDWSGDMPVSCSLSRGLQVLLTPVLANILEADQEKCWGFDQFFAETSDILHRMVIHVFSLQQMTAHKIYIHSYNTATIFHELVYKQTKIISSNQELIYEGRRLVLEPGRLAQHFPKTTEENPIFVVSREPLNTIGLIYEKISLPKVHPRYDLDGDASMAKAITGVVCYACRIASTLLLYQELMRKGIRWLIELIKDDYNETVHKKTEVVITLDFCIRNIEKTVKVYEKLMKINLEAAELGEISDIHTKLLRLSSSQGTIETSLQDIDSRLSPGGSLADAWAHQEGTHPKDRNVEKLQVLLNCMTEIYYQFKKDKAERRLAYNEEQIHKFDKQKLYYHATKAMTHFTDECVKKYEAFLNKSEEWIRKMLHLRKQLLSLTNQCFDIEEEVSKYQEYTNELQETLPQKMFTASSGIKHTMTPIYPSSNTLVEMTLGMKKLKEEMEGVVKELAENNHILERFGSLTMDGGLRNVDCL

[29] = Anti-inflammatory activity against human derived medium respond PBMC cells assessed as inhibition in stimulated IL-5 cytokine release incubated for 2 hrs in the presence of LPS/SEB/aCD28 by Luminex based sandwich immunoassay; assay type: functional, cell-based

## O=C1c2ccc(Nc3ccc(F)cc3F)cc2CCc2ccc(OC[C@H](O)CO)cc21 [Skepinone-L]
[1]
  Activity: 90%
[2]
  Activity: 100%
[3]
  Activity: 100%
[4]
  Activity: 90%
[5]
  Activity: 100%
[6]
  Activity: 100%
[7]
  Activity: 72%
[8]
  Activity: 90%
[9]
  Activity: 87%
[10]
  Activity: 96%
[11]
  Activity: 84%
[12]
  Activity: 100%
[13]
  Activity: 89%
[14]
  Activity: 100%
[15]
  Activity: 94%
[16]
  Activity: 94%
[17]
  Activity: 98%
[18]
  Activity: 106%
[19]
  Activity: 96%
[20]
  Activity: 98%
[21]
  Activity: 97%
[22]
  Activity: 99%
[23]
  Activity: 92%
[24]
  Activity: 102%
[25]
  Activity: 102%
[26]
  Activity: 103%
[27]
  Activity: 96%
[28]
  Activity: 87%
[29]
  IC50: Not Active
